Data on 18 compounds can be found in PubChem BioAssay (NCI).

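These data come from cells grown in 96-well plates and exposed to compound for 48 hours at five concentrations. GI50 marks 50% less growth. TGI: total growth inhibition.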

Among the test systems are DU-145 prostate; NCI/ADR-RES ovarian; MDA-MB-435; HS 578T breast.
Assay in all cases: DTP human tumour cell line panel, 48 h

As to `NC(=O)c1nc(-c2c(F)cccc2Cl)oc1Nc1ccc(C(=O)N2CCOCC2)cc1`, the GI50 in the test with DU-145 prostate is 11.9 µM; in the test with NCI/ADR-RES ovarian, 6.23 µM; with MDA-MB-435, 2.03 µM. For the same compound, the TGI with DU-145 prostate, with NCI/ADR-RES ovarian and in the test on MDA-MB-435 was above 100 µM each time.
Turning to `S=C(Sc1ccc(Cl)cc1)Sc1ccc(Cl)cc1`, the GI50 in the test on DU-145 prostate is 3.6 µM; with NCI/ADR-RES ovarian, 2.67 µM; with MDA-MB-435, 1.92 µM; in the test with HS 578T breast, 3.96 µM. Also, the TGI was found to be 11.4 µM in the test on DU-145 prostate, 6.58 µM in the test on NCI/ADR-RES ovarian, 4.9 µM in the test with MDA-MB-435 and 16.3 µM in the test with HS 578T breast.
Consider `O=C(CI)NC(=O)NC(=O)NCc1ccccc1`, for which the GI50 in the test on NCI/ADR-RES ovarian was 4.62 µM; in the test with MDA-MB-435, 3.15 µM; in the test with HS 578T breast, 20.9 µM. In addition, the TGI in the test on NCI/ADR-RES ovarian was 30.3 µM; with MDA-MB-435, 11.7 µM; in the test with HS 578T breast, 72.4 µM.
For the compound `CCc1ccc(Oc2c(-c3ccc(OCc4ccc(Cl)cc4)cc3O)nn(C)c2C(F)(F)F)cc1`, the GI50 in the test on DU-145 prostate is 0.545 µM; with NCI/ADR-RES ovarian it was 0.905 µM; with MDA-MB-435 it was 1.06 µM; with HS 578T breast it was 1.5 µM. In addition, the TGI in the test on DU-145 prostate stood at 2.27 µM; with NCI/ADR-RES ovarian it was 4.47 µM; with MDA-MB-435, 2.25 µM; in the test on HS 578T breast, 4.92 µM.
Take `CCOC(=O)c1cc(C(=O)c2ccc(OC)c(OC)c2)n2c1ccc1ccc3cccnc3c12`: the GI50 in the test with DU-145 prostate is 3.45 µM; with NCI/ADR-RES ovarian, 0.948 µM; with HS 578T breast, 3.04 µM. Besides, the TGI in the test on DU-145 prostate, with NCI/ADR-RES ovarian and with HS 578T breast was above 100 µM throughout.
Turning to `C[C@]12CCc3nc(Nc4ccc(O)cc4)sc3C1=CC[C@@H]1[C@@H]2CC[C@]2(C)/C(=N/NC(N)=S)CC[C@@H]12`, the GI50 in the test on DU-145 prostate is 1.64 µM; in the test on NCI/ADR-RES ovarian, 2.38 µM; with MDA-MB-435 it was 0.664 µM; with HS 578T breast, 1.75 µM. Moreover, the TGI in the test on DU-145 prostate worked out at 3.15 µM; with NCI/ADR-RES ovarian, 7.51 µM; with MDA-MB-435, 2.05 µM; in the test with HS 578T breast, 6.36 µM.
On to `COc1cc2c(c3c1c(=O)c1ccccc1n3C)C=C([N+](=O)[O-])C(C)(C)O2`, for which the TGI in the test with DU-145 prostate was above 100 µM; in the test on NCI/ADR-RES ovarian, above 100 µM; in the test on MDA-MB-435, 0.577 µM; in the test with HS 578T breast it was above 100 µM.
In the case of `CO[C@H]1C(=O)[C@]2(C)[C@@H](OC)C[C@H]3OC[C@@]3(OC(C)=O)[C@H]2[C@H](OC(=O)c2ccccc2)[C@]2(O)C[C@H](OC(=O)[C@H](O)[C@@H](NC(=O)OC(C)(C)C)c3ccccc3)C(C)=C1C2(C)C`, in the test with DU-145 prostate, the GI50 was below 0.01 µM and the TGI is below 0.01 µM. For the same compound, in the test on NCI/ADR-RES ovarian, the GI50 is 0.0269 µM and the TGI amounted to 1.24 µM.
Consider `O=C1Nc2ccc(-c3cccnc3)cc2/C1=C/c1cc(Br)c(O)c(Br)c1`, for which the GI50 is 6.28 µM in the test with DU-145 prostate, above 20 µM in the test with NCI/ADR-RES ovarian, 4.6 µM in the test on MDA-MB-435 and 5.67 µM with HS 578T breast. The TGI is above 25 µM in the test with DU-145 prostate, above 25 µM with NCI/ADR-RES ovarian, above 21.7 µM with MDA-MB-435 and above 22 µM with HS 578T breast.
`CCN(CC)CCCC(Nc1c2ccc(Cl)cc2nc2ccc(OC)cc12)c1ccc(Cl)cc1` (configuration not stated): the values for the GI50 in the test on DU-145 prostate, in the test on NCI/ADR-RES ovarian and with MDA-MB-435 were 1.52 µM, 1.47 µM and 0.576 µM, respectively. For the same compound, the TGI turned out to be 3.03 µM in the test on DU-145 prostate, 3.08 µM in the test on NCI/ADR-RES ovarian and 1.93 µM in the test on MDA-MB-435.
In the case of `Cc1ccccc1Nc1cc(O)c2c(=O)cc(-c3ccccc3)oc2c1`, the GI50 in the test on DU-145 prostate was 3.78 µM; with NCI/ADR-RES ovarian, 1.28 µM; in the test on MDA-MB-435, 0.315 µM. Also, the TGI is above 100 µM with DU-145 prostate, above 100 µM with NCI/ADR-RES ovarian and 1.93 µM with MDA-MB-435.
Turning to `O=C1c2cccc3c(N4CCOCC4)ccc(c23)C(=O)N1CCN1CCN(CCCCCN2CCN(CCN3C(=O)c4cccc5c(N6CCOCC6)ccc(c45)C3=O)CC2)CC1`, the GI50 in the test with DU-145 prostate, in the test with NCI/ADR-RES ovarian, with MDA-MB-435 and with HS 578T breast was above 100 µM each time. In addition, the TGI in the test on DU-145 prostate, in the test with NCI/ADR-RES ovarian, with MDA-MB-435 and in the test with HS 578T breast was above 100 µM throughout.
Turning to `COc1cc([C@@H]2c3cc4c(cc3[C@H](SC(=N)N)[C@H]3COC(=O)[C@H]23)OCO4)cc(OC)c1OC`, in the test on NCI/ADR-RES ovarian, the GI50 was 0.253 µM and the TGI is above 100 µM. In the test on HS 578T breast, the GI50 is 0.264 µM and the TGI was above 100 µM.
On to `NC1=NC(c2ccccc2Cl)c2c(n[nH]c2N)N1` (configuration not stated), for which the GI50 was 61 µM with DU-145 prostate, 30.4 µM with NCI/ADR-RES ovarian, 15 µM in the test on MDA-MB-435 and above 100 µM in the test with HS 578T breast. Besides, the TGI with DU-145 prostate, in the test with NCI/ADR-RES ovarian, with MDA-MB-435 and in the test on HS 578T breast was above 100 µM throughout.
For the compound `Nc1ncnc2c1c(-c1ccc(Oc3ccccc3)cc1)nn2CC1SSCC1O` (configuration not stated), the GI50 in the test on DU-145 prostate was 4.15 µM; with NCI/ADR-RES ovarian it was 6.61 µM; with MDA-MB-435 it was 0.121 µM; in the test on HS 578T breast it was 5.84 µM. The TGI came to 9.01 µM in the test with DU-145 prostate, 17.6 µM with NCI/ADR-RES ovarian, 0.47 µM in the test with MDA-MB-435 and 19.3 µM in the test with HS 578T breast.
Turning to `Cc1ccc2ccc3c4ccccc4ccc3c2c1`, the GI50 is 34.6 µM in the test on DU-145 prostate, 30.7 µM with NCI/ADR-RES ovarian, 18.1 µM in the test on MDA-MB-435 and 27.7 µM with HS 578T breast. For the same compound, the TGI in the test with DU-145 prostate is above 100 µM; in the test with NCI/ADR-RES ovarian it was above 100 µM; in the test on MDA-MB-435, 71 µM; with HS 578T breast, above 100 µM.
Take `Oc1cn(-c2ccc(Cl)cc2)nc1-c1n[nH]c(=S)n1-c1ccc(F)cc1`: the GI50 in the test with DU-145 prostate was 22 µM; in the test on NCI/ADR-RES ovarian, 15.4 µM; in the test with MDA-MB-435, 4.93 µM; with HS 578T breast, 29.1 µM. The TGI was above 100 µM with DU-145 prostate, 54.9 µM in the test with NCI/ADR-RES ovarian, above 100 µM with MDA-MB-435 and above 100 µM with HS 578T breast.
Take `CCOC(=O)c1cn(C)c2c(OC)c3ccccc3c(OC)c2c1=O`: the GI50 was 63 µM in the test on DU-145 prostate, 20.4 µM in the test on NCI/ADR-RES ovarian, 15.9 µM in the test on MDA-MB-435 and 23.6 µM in the test on HS 578T breast. Moreover, the TGI in the test with DU-145 prostate is above 100 µM; with NCI/ADR-RES ovarian, 56.5 µM; in the test on MDA-MB-435, 30 µM; in the test on HS 578T breast, 63.8 µM.

One may read the GI50 as the concentration that inhibits growth by half. The TGI is the concentration giving total growth inhibition. Low values mean greater sensitivity of the cells, high ones lower sensitivity of the cells.
